# Key:
# PI3Kdelta = PI3Kdelta (Homo sapiens (Human), UniProt O00329); test: HTRF PI3K biochemical assay, delta isoform; conditions: 0.3 nM enzyme, 100 uM ATP, 50 uM PIP2; form screened (neutral or TFA salt)
# Protocol: (§1) HTRF PI3K Biochemical Assay to Measure Intrinsic Potency of Compound Inhibitors
# (§2) This loss of signal is nonlinear with respect to both increasing product and time. This non-linear detection will impact accuracy of IC50 calculations; therefore, there is a need for a correction factor to obtain more accurate IC50 values. This correction is derived from a PIP3 standard curve run in a separate assay plate. All data were calculated using the ratio of acceptor (APC) to donor (Europium) fluorescence in each well of the assay plate. […] An IC50 was then calculated fitting the % inhibition data to the equation: % inhibition=min+(Max−min)/1+([inhibitor]/IC50)^n) where min is the % inhibition with inhibitor, max is the signal in DMSO control, and n is the Hill slope.
# (§3) The biological data was collected using the methodology described above.
# PI3Kalpha = PI3Kalpha (Homo sapiens (Human), UniProt P42336); test: HTRF PI3K biochemical assay, alpha isoform (selectivity versus delta); conditions: ratio PI3K-alpha IC50 value/PI3K-delta IC50 value
# Sequence of PI3Kalpha (P42336 whole entry, canonical isoform): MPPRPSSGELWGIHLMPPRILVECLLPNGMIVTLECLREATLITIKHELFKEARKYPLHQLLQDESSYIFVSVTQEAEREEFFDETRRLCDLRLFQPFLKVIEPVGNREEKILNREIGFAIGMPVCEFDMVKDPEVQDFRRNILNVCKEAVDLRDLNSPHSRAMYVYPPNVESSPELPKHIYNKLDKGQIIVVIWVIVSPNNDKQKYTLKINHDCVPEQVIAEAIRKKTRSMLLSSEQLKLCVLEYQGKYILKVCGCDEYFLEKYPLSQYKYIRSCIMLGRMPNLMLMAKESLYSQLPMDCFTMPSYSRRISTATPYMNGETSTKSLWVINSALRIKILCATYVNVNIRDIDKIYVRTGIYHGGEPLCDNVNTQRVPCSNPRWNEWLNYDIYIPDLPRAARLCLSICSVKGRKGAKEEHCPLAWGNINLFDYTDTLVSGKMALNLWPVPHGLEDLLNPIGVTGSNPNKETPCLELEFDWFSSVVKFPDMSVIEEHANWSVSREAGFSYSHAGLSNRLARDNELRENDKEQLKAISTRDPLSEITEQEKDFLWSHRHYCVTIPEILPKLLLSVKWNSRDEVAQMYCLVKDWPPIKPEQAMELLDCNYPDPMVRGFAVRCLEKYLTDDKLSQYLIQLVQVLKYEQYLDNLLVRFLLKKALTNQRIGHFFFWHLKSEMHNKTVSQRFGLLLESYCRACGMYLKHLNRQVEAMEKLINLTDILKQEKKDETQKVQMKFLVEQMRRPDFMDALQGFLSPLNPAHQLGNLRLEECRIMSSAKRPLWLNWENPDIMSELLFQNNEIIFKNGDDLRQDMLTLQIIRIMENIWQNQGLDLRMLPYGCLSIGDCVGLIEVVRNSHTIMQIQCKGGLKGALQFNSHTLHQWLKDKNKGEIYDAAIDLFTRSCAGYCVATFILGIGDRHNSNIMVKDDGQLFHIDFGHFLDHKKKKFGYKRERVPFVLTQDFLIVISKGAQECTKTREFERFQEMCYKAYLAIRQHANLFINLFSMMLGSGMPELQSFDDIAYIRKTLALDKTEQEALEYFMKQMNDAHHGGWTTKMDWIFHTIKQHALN
# Sequence of PI3Kalpha (P27986 whole entry partner, canonical isoform): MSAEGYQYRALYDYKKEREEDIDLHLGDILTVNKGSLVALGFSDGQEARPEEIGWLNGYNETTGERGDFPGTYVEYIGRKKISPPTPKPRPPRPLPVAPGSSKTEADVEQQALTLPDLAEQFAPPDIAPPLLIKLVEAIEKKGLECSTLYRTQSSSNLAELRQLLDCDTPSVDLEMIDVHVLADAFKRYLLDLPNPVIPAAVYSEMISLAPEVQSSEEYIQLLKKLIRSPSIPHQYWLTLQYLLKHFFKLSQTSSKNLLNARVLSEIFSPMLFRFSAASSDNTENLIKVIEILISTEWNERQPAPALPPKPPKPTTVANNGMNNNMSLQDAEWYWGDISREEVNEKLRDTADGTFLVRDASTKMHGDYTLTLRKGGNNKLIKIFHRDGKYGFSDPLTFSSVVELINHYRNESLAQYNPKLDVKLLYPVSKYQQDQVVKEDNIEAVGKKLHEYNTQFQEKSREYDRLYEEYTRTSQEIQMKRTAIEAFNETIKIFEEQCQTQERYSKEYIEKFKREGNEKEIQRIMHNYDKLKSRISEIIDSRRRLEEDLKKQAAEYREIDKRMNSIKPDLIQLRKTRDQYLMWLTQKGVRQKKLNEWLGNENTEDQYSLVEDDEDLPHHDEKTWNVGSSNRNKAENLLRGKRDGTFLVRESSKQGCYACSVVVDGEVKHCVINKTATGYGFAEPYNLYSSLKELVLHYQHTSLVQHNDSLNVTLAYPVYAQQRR
# Protocol: as §1, §2, §3
# The determination of relative selectivity for a given compound is defined as the relative ratio of the (PI3K-alphaIC50 value/PI3K-delta IC50 value).
# Sequence of PI3Kdelta (O00329 whole entry, canonical isoform): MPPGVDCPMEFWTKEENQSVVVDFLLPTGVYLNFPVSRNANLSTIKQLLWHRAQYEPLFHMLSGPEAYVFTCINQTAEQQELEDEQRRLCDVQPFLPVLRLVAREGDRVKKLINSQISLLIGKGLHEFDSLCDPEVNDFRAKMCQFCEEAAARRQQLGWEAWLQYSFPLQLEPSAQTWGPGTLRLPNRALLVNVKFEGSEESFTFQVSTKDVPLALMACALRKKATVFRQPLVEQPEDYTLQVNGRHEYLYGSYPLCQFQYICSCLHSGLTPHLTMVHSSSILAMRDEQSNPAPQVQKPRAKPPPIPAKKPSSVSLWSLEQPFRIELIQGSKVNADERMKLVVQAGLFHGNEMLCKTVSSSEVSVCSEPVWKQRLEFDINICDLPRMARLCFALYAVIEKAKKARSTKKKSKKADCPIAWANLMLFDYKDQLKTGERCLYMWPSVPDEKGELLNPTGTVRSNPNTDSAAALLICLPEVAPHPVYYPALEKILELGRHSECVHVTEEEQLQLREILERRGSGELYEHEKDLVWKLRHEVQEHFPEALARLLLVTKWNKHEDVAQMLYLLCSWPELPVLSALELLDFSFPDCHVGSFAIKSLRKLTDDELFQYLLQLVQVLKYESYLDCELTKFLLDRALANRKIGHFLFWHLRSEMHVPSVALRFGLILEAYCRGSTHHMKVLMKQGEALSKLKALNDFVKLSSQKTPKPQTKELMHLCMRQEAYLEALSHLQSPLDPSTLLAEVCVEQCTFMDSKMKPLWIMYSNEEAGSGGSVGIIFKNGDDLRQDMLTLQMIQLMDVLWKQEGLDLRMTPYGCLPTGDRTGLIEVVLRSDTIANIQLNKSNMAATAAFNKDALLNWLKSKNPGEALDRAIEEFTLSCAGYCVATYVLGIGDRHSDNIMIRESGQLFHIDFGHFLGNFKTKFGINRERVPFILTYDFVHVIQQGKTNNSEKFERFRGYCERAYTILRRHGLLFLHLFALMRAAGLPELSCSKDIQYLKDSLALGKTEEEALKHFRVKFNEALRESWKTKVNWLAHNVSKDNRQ
# Sequence of PI3Kdelta (P27986 whole entry partner, canonical isoform): as the sequence (P27986 whole entry partner, canonical isoform) above
IC50 (PI3Kdelta) [nM],Relative Selectivity versus PI3Kalpha (PI3Kalpha),Compound
8,>10,"CCn1c(-c2cnc(C)nc2)nc2c(-c3ccc4c(c3)C(C)(NCC3(C)CCC3)C(=O)N4)ncnc21 (racemic) [Compound 2-18, (R and S)-5-[9-ethyl-8-(2-methylpyrimidin-5-yl)-9H-purin-6-yl]-3-methyl-3-{[(1-methylcyclobutyl)methyl]amino}-1,3-dihydro-2H-indol-2-one]"
22,>10,"CCn1c(-c2cnc(C)nc2)nc2c(-c3ccc4c(c3)C(C)(NCC3(C#N)CCC3)C(=O)N4)ncnc21 (racemic) [Compound 2-19, (R and S)-1-[({5-[9-ethyl-8-(2-methylpyrimidin-5-yl)-9H-purin-6-yl]-3-methyl-2-oxo-2,3-dihydro-1H-indol-3-yl}amino)methyl]cyclobutane-carbonitrile]"
23,>10,"CCn1c(-c2cnc(C)nc2)nc2c(-c3ccc4c(c3)C(C)(NCC3CCC3)C(=O)N4)ncnc21 (racemic) [Compound 2-20, (R and S)-3-[(cyclobutylmethyl)amino]-5-[9-ethyl-8-(2-methylpyrimidin-5-yl)-9H-purin-6-yl]-3-methyl-1,3-dihydro-2H-indol-2-one]"
22,>10,"CCn1c(-c2cnc(C)nc2)nc2c(-c3ccc4c(c3)C(C)(NC[C@@H]3CCCO3)C(=O)N4)ncnc21 (mixture of isomers) [Compound 2-21, 5-[9-ethyl-8-(2-methylpyrimidin-5-yl)-9H-purin-6-yl]-3(R and S)-methyl-3-{[(2S)-tetrahydrofuran-2-ylmethyl]amino}-1,3-dihydro-2H-indol-2-one]"
26,>10,"CCn1c(-c2cnc(C)nc2)nc2c(-c3ccc4c(c3)C(C)(NC[C@H]3CCCO3)C(=O)N4)ncnc21 (mixture of isomers) [Compound 2-22, 5-[9-ethyl-8-(2-methylpyrimidin-5-yl)-9H-purin-6-yl]-3(R and S)-methyl-3-{[(2R)-tetrahydrofuran-2-ylmethyl]amino}-1,3-dihydro-2H-indol-2-one]"
7,>10,"CCn1c(-c2cnc(C)nc2)nc2c(-c3ccc4c(c3)C(C)(N3CCOCC35CCC5)C(=O)N4)ncnc21 (racemic) [Compound 2-23, (R and S)-5-[9-ethyl-8-(2-methylpyrimidin-5-yl)-9H-purin-6-yl]-3-methyl-3-(8-oxa-5-azaspiro[3.5]non-5-yl)-1,3-dihydro-2H-indol-2-one]"
67,>10,"CCn1c(-c2cnc(C)nc2)nc2c(-c3ccc4c(c3)C(C)(N3CCn5nccc5C3)C(=O)N4)ncnc21 (racemic) [Compound 2-24, (R and S)-3-(6,7-dihydropyrazolo[1,5-a]pyrazin-5(4H)-yl)-5-[9-ethyl-8-(2-methylpyrimidin-5-yl)-9H-purin-6-yl]-3-methyl-1,3-dihydro-2H-indol-2-one]"
28,>10,"CCn1c(-c2cnc(C)nc2)nc2c(-c3ccc4c(c3)C(C)(NC3CCOCC3)C(=O)N4)ncnc21 (racemic) [Compound 2-25, (R and S)-5-[9-ethyl-8-(2-methylpyrimidin-5-yl)-9H-purin-6-yl]-3-methyl-3-(tetrahydro-2H-pyran-4-ylamino)-1,3-dihydro-2H-indol-2-one]"
58,>10,"CCn1c(-c2cnc(C)nc2)nc2c(-c3ccc4c(c3)C(C)(N3C[C@H]5C[C@@H]3CO5)C(=O)N4)ncnc21 (mixture of isomers) [Compound 2-26, 5-[9-ethyl-8-(2-methylpyrimidin-5-yl)-9H-purin-6-yl]-3(R and S)-methyl-3-[(1R,4R)-2-oxa-5-azabicyclo[2.2.1]hept-5-yl]-1,3-dihydro-2H-indol-2-one]"
13,>10,"CCn1c(-c2cnc(C)nc2)nc2c(-c3ccc4c(c3)C(C)(N[C@@H](C)C3CCC3)C(=O)N4)ncnc21 (mixture of isomers) [Compound 2-27, 3-{[(1S)-1-cyclobutylethyl]amino}-5-[9-ethyl-8-(2-methylpyrimidin-5-yl)-9H-purin-6-yl]-3(R and S)-methyl-1,3-dihydro-2H-indol-2-one]"
49,>10,"CCn1c(-c2cnc(C)nc2)nc2c(-c3ccc4c(c3)C(C)(N3CC5(CCOC5)C3)C(=O)N4)ncnc21 (racemic) [Compound 2-28, (R and S)-5-[9-ethyl-8-(2-methylpyrimidin-5-yl)-9H-purin-6-yl]-3-methyl-3-(6-oxa-2-azaspiro[3.4]oct-2-yl)-1,3-dihydro-2H-indol-2-one]"

# Second part, the compound before the results:
Compound,IC50 (PI3Kdelta) [nM],Relative Selectivity versus PI3Kalpha (PI3Kalpha)
"CCn1c(-c2cnc(C)nc2)nc2c(-c3ccc4c(c3)C(C)(CC(C)C)C(=O)N4)ncnc21 (single isomer, unassigned) [Compound 1-1, 5-(9-Ethyl-8-(2-methylpyrimidin-5-yl)-9H-purin-6-yl)-3-isobutyl-3-methylindolin-2-one]",4,>10
"CCn1c(-c2cnc(C)nc2)nc2c(-c3ccc4c(c3)C(C)(CC(C)C)C(=O)N4)ncnc21 (single isomer, unassigned) [Compound 1-2, 5-(9-Ethyl-8-(2-methylpyrimidin-5-yl)-9H-purin-6-yl)-3-isobutyl-3-methylindolin-2-one]",121,>10
"CCn1c(-c2cnc(C)nc2)nc2c(-c3ccc4c(c3)C(C)(CC3(C)COC3)C(=O)N4)ncnc21 (single isomer, unassigned) [Compound 1-5, (R or S)-5-[9-ethyl-8-(2-methylpyrimidin-5-yl)-9H-purin-6-yl]-3-methyl-3-[(3-methyloxetan-3-yl)methyl]-1,3-dihydro-2H-indol-2-one]",177,3
"CCn1c(-c2cnc(C)nc2)nc2c(-c3ccc4c(c3)C(C)(CC3(C)COC3)C(=O)N4)ncnc21 (single isomer, unassigned) [Compound 1-6, (R or S)-5-[9-ethyl-8-(2-methylpyrimidin-5-yl)-9H-purin-6-yl]-3-methyl-3-[(3-methyloxetan-3-yl)methyl]-1,3-dihydro-2H-indol-2-one]",15,>10
"CCn1c(-c2cnc(C)nc2)nc2c(-c3ccc4c(c3)C(C)(CC3CC3)C(=O)N4C)ncnc21 (single isomer, unassigned) [Compound 1-9, 3-(Cyclopropylmethyl)-5-(9-ethyl-8-(2-methylpyrimidin-5-yl)-9H-purin-6-yl)-1,3-dimethylindolin-2-one]",17,>10
"CCn1c(-c2cnc(C)nc2)nc2c(-c3ccc4c(c3)C(C)(CC3CC3)C(=O)N4C)ncnc21 (single isomer, unassigned) [Compound 1-10, 3-(Cyclopropylmethyl)-5-(9-ethyl-8-(2-methylpyrimidin-5-yl)-9H-purin-6-yl)-1,3-dimethylindolin-2-one]",194,>10
"CCn1c(-c2cnc(C)nc2)nc2c(-c3cnc4c(c3)C(C)(CC(C)C)C(=O)N4)ncnc21 (single isomer, unassigned) [Compound 1-12, 5-(9-ethyl-8-(2-methylpyrimidin-5-yl)-9H-purin-6-yl)-3-isobutyl-3-methyl-1,3-dihydro-2H-pyrrolo[2,3-b]pyridin-2-one]",9,>10
"CCn1c(-c2cnc(C)nc2)nc2c(-c3cnc4c(c3)C(C)(CC(C)C)C(=O)N4)ncnc21 (single isomer, unassigned) [Compound 1-13, 5-(9-ethyl-8-(2-methylpyrimidin-5-yl)-9H-purin-6-yl)-3-isobutyl-3-methyl-1,3-dihydro-2H-pyrrolo[2,3-b]pyridin-2-one]",370,>10
"CCn1c(-c2cnc(C)nc2)nc2c(-c3cnc4c(c3)C(C)(CC3CC3)C(=O)N4)ncnc21 (single isomer, unassigned) [Compound 1-14, (R or S)-3-(cyclopropylmethyl)-5-(9-ethyl-S-(2-methylpyrimidin-5-yl)-9H-purin-6-yl)-3-methyl-1,3-dihydro-2H-pyrrolo[2,3-b]pyridin-2-one]",16,>10
"CCn1c(-c2cnc(C)nc2)nc2c(-c3cnc4c(c3)C(C)(CC3CC3)C(=O)N4)ncnc21 (single isomer, unassigned) [Compound 1-15, (R or S)-3-(cyclopropylmethyl)-5-(9-ethyl-8-(2-methylpyrimidin-5-yl)-9H-purin-6-yl)-3-methyl-1,3-dihydro-2H-pyrrolo[2,3-b]pyridin-2-one]",224,>10
"CCn1c(-c2cnc(C)nc2)nc2c(-c3ccc4c(c3)C(C)(Cc3ccccc3)C(=O)N4C)ncnc21 (single isomer, unassigned) [Compound 1-20, 3-Benzyl-5-(9-ethyl-8-(2-methylpyrimidin-5-yl)-9H-purin-6-yl)-1,3-dimethylindolin-2-one]",477,3
"CCn1c(-c2cnc(C)nc2)nc2c(-c3ccc4c(c3)C(C)(Cc3ccccc3)C(=O)N4C)ncnc21 (single isomer, unassigned) [Compound 1-21, 3-Benzyl-5-(9-ethyl-8-(2-methylpyrimidin-5-yl)-9H-purin-6-yl)-1,3-dimethylindolin-2-one]",4,>10

# — patent US10544147B2, “Purine inhibitors of human phosphatidylinositol 3-kinase delta” (MERCK SHARP & DOHME CORP., priority 2016, dated 2020)
